Measurements published in the CombiSolv-Exp solvation set (Vermeire and Green 2021).

Experiment: solvent given as SMILES

C(=Cc1ccccc1)c1ccccc1
Settings | solvation free energy, 298 K [kcal/mol]
in C1CCOC1 | -11.8
in C1COCCO1 | -11.5
in CC(C)(C)O | -9.66
in CC(C)CC(C)(C)C | -9.92
in CC(C)CC(C)O | -9.81
in CC(C)CCCC(C)CCO | -10
in CC(C)CCO | -9.88
in CC(C)CO | -9.73
in CC(C)O | -9.74
in CCC(C)(C)O | -9.84
in CCC(C)=O | -11.5
in CCC(C)O | -9.81
in CCCC(C)CO | -9.92
in CCCC(C)O | -9.91
in CCCCC(CC)CO | -10
in CCCCCC | -10.2
in CCCCCCC | -10.2
in CCCCCCCC | -10.2
in CCCCCCCCCC | -10.2
in CCCCCCCCCCO | -10.2
in CCCCCCCCO | -10.2
in CCCCCCCO | -10.2
in CCCCCCO | -10.1
in CCCCCO | -10.1
in CCCCO | -10
in CCCCOC(C)=O | -11.2
in CCCCOCCCC | -10.6
in CCCO | -9.97
in CCO | -9.99
in CCOC(C)=O | -11.2
in CCOCC | -11
in CN(C)C=O | -11.6
in CO | -9.92
in COC(C)(C)C | -10.9
in COC(C)=O | -11.2
in Cc1ccc(C)cc1 | -11.3
in Cc1cccc(C)c1 | -11.2
in Cc1ccccc1C | -11.3
in ClC(Cl)(Cl)Cl | -11.2
in Clc1ccccc1 | -11.5
in O | -3.79

CC1CCCC1
Settings | solvation free energy, 298 K [kcal/mol]
in CC1CCS(=O)(=O)C1 | -2.51
in CC#N | -2.8
in CCCCCCCCCC | -3.93
in CCCCCCCO | -3.51
in CCCCCO | -3.51
in CN1CCCC1=O | -2.99
in CN1CCCCC1=O | -3.16
in CN(C)C=O | -3
in CNC=O | -2.67
in COCCO | -2.99
in CS(C)=O | -2.47
in O | 1.6
in O=CN1CCOCC1 | -2.47
in OC1CCCCC1 | -3.44
in OCCOCCO | -1.85
in OCCS | -2.33
in OCc1ccccc1 | -3.01

CC1CCC(C(C)C)C(=O)C1 (stereo not given)
Settings | solvation free energy, 298 K [kcal/mol]
in O | -2.53

Nc1cc([N+](=O)[O-])cc(Cl)c1O
Settings | solvation free energy, 298 K [kcal/mol]
in O | -10.2

O=C(O)c1ccccc1Cl
Settings | solvation free energy, 298 K [kcal/mol]
in CC(C)=O | -10.4
in CN(C)C=O | -11.1
in O | -7.53

CN1CCCCC1
Settings | solvation free energy, 298 K [kcal/mol]
in COC(C)(C)C | -4.8
in O | -3.88

CCCCCCCOC(C)=O
Settings | solvation free energy, 298 K [kcal/mol]
in NC=O | -4.84
in O | -2.07

c1ccc2c(c1)[nH]c1ccccc12
Settings | solvation free energy, 298 K [kcal/mol]
in CC(=O)N(C)C | -14
in CN1CCCC1=O | -14.5
in O | -7.18

CCOc1ccc(NC(C)=O)cc1
Settings | solvation free energy, 298 K [kcal/mol]
in C1CCOC1 | -13.7
in CCCCCCCCO | -13.1
in CCCCCO | -13
in CCCCO | -13.2
in CCCO | -13.2
in CCO | -13.3
in CCOC(C)=O | -12.8
in CO | -13.6
in O | -10.9

CC(=O)OCCC(C)C
Settings | solvation free energy, 298 K [kcal/mol]
in CCCCCCCCCCCCCCCC | -4.96
in CCCCCCCCO | -5.34
in O | -2.29
in [2H]O[2H] | -2.36

Clc1ccc(Cl)c(-c2ccccc2)c1
Settings | solvation free energy, 298 K [kcal/mol]
in O | -2.46

CN1CCOCC1
Settings | solvation free energy, 298 K [kcal/mol]
in O | -6.32

CCCCCCCCCCCCCCCCCCCCCCCCCCC
Settings | solvation free energy, 298 K [kcal/mol]
in CC(=O)N(C)C | -18.4
in CN(C)C=O | -18.5
in O | 5.74

NC(N)=S
Settings | solvation free energy, 298 K [kcal/mol]
in CCCCCCO | -9.57
in CCCCCO | -9.72
in CCCCO | -9.97
in CCCO | -10.2
in CCO | -10.6

CCC
Settings | solvation free energy, 298 K [kcal/mol]
in Brc1ccccc1 | -1.43
in C1CCC2CCCCC2C1 | -1.52
in C1COCCO1 | -1.24
in CC1COC(=O)O1 | -0.58
in CC(=O)N(C)C | -1.09
in CC(C)(C)O | -1.39
in CC(C)=O | -1.36
in CC(C)CCO | -1.33
in CC(C)CO | -1.32
in CC(C)O | -1.21
in CC(CC(C)(C)C)CC(C)(C)CC(C)(C)C | -2.21
in CCC(C)(C)O | -1.42
in CCC(C)CO | -1.32
in CCC(O)CC | -1.34
in CCCC(C)O | -1.34
in CCCCC | -1.81
in CCCCCC | -1.8
in CCCCCCC | -1.77
in CCCCCCCC | -1.74
in CCCCCCCCC | -1.71
in CCCCCCCCCC | -1.67
in CCCCCCCCCCCC | -1.54
in CCCCCCCCCCCCC | -1.54
in CCCCCCCCCCCCCC | -1.49
in CCCCCCCCCCCCCCC | -1.48
in CCCCCCCCCCCCCCCC | -1.42
in CCCCCCCCO | -1.28
in CCCCCCCO | -1.22
in CCCCCO | -1.32
in CCCCO | -1.35
in CCCO | -1.32
in CCO | -1.24
in CN1CCCC1=O | -0.89
in CN(C)C=O | -0.88
in CN(C)P(=O)(N(C)C)N(C)C | -1.15
in CO | -1.15
in COCCOCCO | -0.77
in COCCOCCOC | -1.24
in COCCOCCOCCOC | -0.95
in COCCOCCOCCOCCOC | -0.98
in CS(C)=O | -0.36
in Cc1ccc(C)cc1 | -1.56
in Cc1cccc(C)c1 | -1.62
in Cc1ccccc1C | -1.52
in ClC(Cl)(Cl)Cl | -1.83
in Clc1ccccc1 | -1.61
in Ic1ccccc1 | -1.51
in N#Cc1ccccc1 | -1.11
in NC=O | 0.19
in Nc1ccccc1 | -0.79
in O | 1.96
in OC1CCCCC1 | -1.1
in OCCCOCCCO | -0.57
in OCc1ccccc1 | -0.84
in c1ccccc1 | -1.61

Clc1ccc(Cl)c(-c2cc(Cl)c(Cl)c(Cl)c2)c1
Settings | solvation free energy, 298 K [kcal/mol]
in O | -3.61

C=C1CC=C(C(C)C)CC1
Settings | solvation free energy, 298 K [kcal/mol]
in O | 0.05

C=CCCl
Settings | solvation free energy, 298 K [kcal/mol]
in O | -0.57

CC(C)CCC(C)(C)C
Settings | solvation free energy, 298 K [kcal/mol]
in O | 2.94

Brc1cc(Br)c(Br)cc1Br
Settings | solvation free energy, 298 K [kcal/mol]
in CCCCCCCCC=CCCCCCCCC(=O)OCC(COC(=O)CCCCCCCC=CCCCCCCCC)OC(=O)CCCCCCCC=CCCCCCCCC | -9.71
in O | -2.54

CCCC(=O)c1c(C)[nH]n(-c2ccccc2)c1=O
Settings | solvation free energy, 298 K [kcal/mol]
in O | -9.51
